Data as given in patent publication US9890117B2, “Benzamide compounds and related methods of use” (Northwestern University, priority 2012, dated 2018).
Structures can show the parent of a compound that is named as a salt.

System: not given
Assay: not given
Details: not given

| melting point | SMILES |
| --- | --- |
| 158 to 159 °C | CN(c1ccc(Cl)cc1)S(=O)(=O)c1cccc(C(=O)Nc2ccc(C#N)cc2F)c1 [Compound 203Ab, 3-(N-(4-chlorophenyl)-N-methylsulfamoyl)-N-(4-cyano-2-fluorophenyl)benzamide] |
| 195 to 197 °C | CN(c1ccc(Cl)cc1)S(=O)(=O)c1cc(C(=O)Nc2ccc(C#N)cc2)ccn1 [Compound 203Am, 2-(N-(4-chlorophenyl)-N-methylsulfamoyl)-N-(4-cyanophenyl)isonicotinamide] |

Molecular target: T1, SIRT2 (Homo sapiens, UniProt Q8IXJ6)
T1 construct: recombinant active enzymes SIRT1, SIRT2, and the catalytically active fragment of SIRT3
T1 sequence (Q8IXJ6 1-389): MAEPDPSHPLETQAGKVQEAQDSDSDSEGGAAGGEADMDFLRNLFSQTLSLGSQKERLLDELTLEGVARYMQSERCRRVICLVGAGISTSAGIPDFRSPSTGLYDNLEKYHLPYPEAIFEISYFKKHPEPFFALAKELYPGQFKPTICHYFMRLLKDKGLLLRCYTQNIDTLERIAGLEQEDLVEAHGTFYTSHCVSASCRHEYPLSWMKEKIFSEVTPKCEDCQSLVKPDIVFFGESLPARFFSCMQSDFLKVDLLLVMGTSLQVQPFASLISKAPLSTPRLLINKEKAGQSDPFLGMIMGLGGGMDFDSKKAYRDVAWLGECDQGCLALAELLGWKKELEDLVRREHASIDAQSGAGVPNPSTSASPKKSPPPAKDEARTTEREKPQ
Assay: Fluor-de-Lys biochemical sirtuin deacetylation assay, SIRT2
Details: 10 μM

| SMILES | inhibition at 10 µM |
| --- | --- |
| CC(C)(C)N(Cc1ccc(C#N)cc1)Cc1cccc(C(=O)Nc2ccc(C#N)cc2)c1 [Compound 225h, 3-((tert-butyl(4-cyanobenzyl)amino)methyl)-N-(4-cyanophenyl)benzamide hydrochloride] | 28% |
| N#Cc1ccc(NC(=O)c2cccc3c2CCN(Cc2ccc(F)c(F)c2)C3)cc1 [Compound 225m, N-(4-cyanophenyl)-2-(3,4-difluorobenzyl)-1,2,3,4-tetrahydroisoquinoline-5-carboxamide hydrochloride] | 65% |
| CN(C(=O)c1cncc(CN(Cc2ccc(F)c(F)c2)C2CC2)c1)c1ccc(C#N)cc1 [Compound 225n, N-(4-cyanophenyl)-5-((cyclopropyl(3,4-difluorobenzyl)amino)methyl)-N-methylnicotinamide hydrochloride] | 0% |
| CN(C(=O)c1cncc(CN(Cc2ccc(C#N)cc2)C2CC2)c1)c1ccc(Cl)cc1 [Compound 225p, N-(4-chlorophenyl)-5-(((4-cyanobenzyl)(cyclopropyl)amino)methyl)-N-methylnicotinamide hydrochloride] | 0% |
| N#Cc1ccc(NC(=O)c2cccc(CN3CCc4cc(Br)ccc4C3)c2)cc1 [Compound 225q, 3-((6-bromo-3,4-dihydroisoquinolin-2(1H)-yl)methyl)-N-(4-cyanophenyl)benzamide hydrochloride] | 80% |
| CC(=O)c1ccc(CN(Cc2cncc(C(=O)N(C)c3ccc(C#N)cc3)c2)C2CC2)cc1 [Compound 225s, 5-(((4-acetylbenzyl)(cyclopropyl)amino)methyl)-N-(4-cyanophenyl)-N-methylnicotinamide hydrochloride] | 3% |
| O=C(Nc1ccc(Cl)cc1)c1cncc(CN(Cc2ccc(F)c(F)c2)C2CC2)c1 [Compound 225t, N-(4-chlorophenyl)-5-((cyclopropyl(3,4-difluorobenzyl)amino)methyl)nicotinamide hydrochloride] | 9% |
| CC(=O)c1ccc(NC(=O)c2cncc(CN(Cc3ccc(F)c(F)c3)C3CC3)c2)cc1 [Compound 225u, N-(4-acetylphenyl)-5-((cyclopropyl(3,4-difluorobenzyl)amino)methyl)nicotinamide hydrochloride] | 5% |
| O=C(Nc1ccc(C(F)(F)F)cc1)c1cncc(CN(Cc2ccc(F)c(F)c2)C2CC2)c1 [Compound 225v, 5-((cyclopropyl(3,4-difluorobenzyl)amino)methyl)-N-(4-(trifluoromethyl)phenyl)-nicotinamide hydrochloride] | 3% |
| N#Cc1cccc(NC(=O)c2cncc(CN(Cc3ccc(F)c(F)c3)C3CC3)c2)c1 [Compound 225w, N-(3-cyanophenyl)-5-((cyclopropyl(3,4-difluorobenzyl)amino)methyl)nicotinamide hydrochloride] | 20% |
| CN(c1ccc(Cl)cc1)S(=O)(=O)c1cccc(NC(=O)Nc2ccc(Cl)cc2)c1 [Compound 233a, N-(4-chlorophenyl)-3-(3-(4-chlorophenyl)ureido)-N-methylbenzenesulfonamide] | 0% |
| N#Cc1ccc(/N=C(/N)c2cccc(OCc3cccc(F)c3F)c2)cc1 [Compound 234a, N′-(4-cyanophenyl)-3-((2,3-difluorobenzyl)oxy)benzimidamide hydrochloride] | 12% |
| N#Cc1ccc(COc2cccc(/C(N)=N\c3ccc(C#N)cc3)c2)cc1 [Compound 234b, 3-((4-cyanobenzyl)oxy)-N′-(4-cyanophenyl)benzimidamide hydrochloride] | 12% |
| C[C@@H](Oc1cccc(/C(N)=N\c2ccc(C#N)cc2)c1)c1ccc(C#N)cc1 [Compound 234c, (R)—N′-(4-cyanophenyl)-3-(1-(4-cyanophenyl)ethoxy)benzimidamide hydrochloride] | 39% |
| COc1ccc(N(C)S(=O)(=O)c2cccc(/C(N)=N\c3ccc(C#N)cc3)c2)cc1 [Compound 234d, N′-(4-cyanophenyl)-3-(N-(4-methoxyphenyl)-N-methylsulfamoyl)benzimidamide hydrochloride] | 12% |
| N/C(=N/c1cccc([N+](=O)[O-])c1)c1cccc(S(=O)(=O)N2CCCCCC2)c1 [Compound 234e, 3-(azepan-1-ylsulfonyl)-N′-(3-nitrophenyl)benzimidamide] | 27% |

Now from value to compound:

| inhibition at 10 µM | SMILES |
| --- | --- |
| 63% | CN(Cc1ccc(C#N)cc1)Cc1cccc(C(=O)Nc2ccc(C#N)cc2)c1 [Compound 225a, 3-(((4-cyanobenzyl)(methyl)amino)methyl)-N-(4-cyanophenyl)benzamide] |
| 55% | N#Cc1ccc(NC(=O)c2cccc(CN(Cc3ccc(F)c(F)c3)C3CC3)c2)cc1 [Compound 225d, N-(4-cyanophenyl)-3-((cyclopropyl(3,4-difluorobenzyl)amino)methyl)benzamide hydrochloride] |
| 49% | N#Cc1ccc(NC(=O)c2cccc(CN(Cc3ccc(C(F)(F)F)cc3)C3CC3)c2)cc1 [Compound 225e, N-(4-cyanophenyl)-3-((cyclopropyl(4-(trifluoromethyl)benzyl)amino)methyl)-benzamide hydrochloride] |
| 64% | N#Cc1ccc(NC(=O)c2cccc(CN(Cc3cc(F)cc(F)c3)C3CC3)c2)cc1 [Compound 225f, N-(4-cyanophenyl)-3-((cyclopropyl(3,5-difluorobenzyl)amino)methyl)benzamide hydrochloride] |
| 44% | N#Cc1ccc(NC(=O)c2cccc(CN(Cc3ccc(C#N)nc3)C3CC3)c2)cc1 [Compound 225g, N-(4-cyanophenyl)-3-((((6-cyanopyridin-3-yl)methyl)(cyclopropyl)amino)-methyl)benzamide hydrochloride] |
| 37% | N#Cc1ccc(NC(=O)c2cccc(CN(Cc3ccc(Br)cc3)C3CC3)c2)cc1 [Compound 225l, 3-(((4-bromobenzyl)(cyclopropyl)amino)methyl)-N-(4-cyanophenyl)benzamide hydrochloride] |
| 8% | N#Cc1ccc(CN(Cc2cncc(C(=O)Nc3ccc(Cl)cc3)c2)C2CC2)cc1 [Compound 225o, N-(4-chlorophenyl)-5-(((4-cyanobenzyl)(cyclopropyl)amino)methyl)nicotinamide hydrochloride] |
| 10% | CC(=O)c1ccc(CN(Cc2cncc(C(=O)Nc3ccc(C#N)cc3)c2)C2CC2)cc1 [Compound 225r, 5-(((4-acetylbenzyl)(cyclopropyl)amino)methyl)-N-(4-cyanophenyl)nicotinamide hydrochloride] |
| 24% | CC(=O)c1ccc(CN(Cc2cccc(C(=O)Nc3ccc(C#N)cc3)c2)C2CC2)cc1 [Compound 225x, 3-(((4-acetylbenzyl)(cyclopropyl)amino)methyl)-N-(4-cyanophenyl)benzamide hydrochloride] |
